Laboratory results as given in patent publication US20060270727A1, “Small molecule therapeutics and uses therefor” (priority 2005, published 2006).

Tests used:
[1] = tested on: frataxin mRNA in GM15850 FRDA lymphoid cell line; assay: qRT-PCR of frataxin mRNA, FRDA cell line; format: cell-based, human; settings: for effect on frataxin mRNA levels, in words: GM15850 FRDA cell line, 7 days incubation
From the text: GAA Specific Polyamides Up Regulate Frataxin mRNA and Protein. To assess whether polyamides alleviate transcription inhibition caused by expanded GAA repeats in the frataxin gene, quantitative real time/reverse transcriptase PCR (qRT-PCR) was used to monitor frataxin mRNA levels in the GM15850 and GM15851 lymphoid cell lines described above; levels of glyceraldehyde 3-phosphate dehydrogenase (GAPDH) mRNA were used as an internal control for each RNA sample; see Example 8. No differences in GAPDH were found between the two cell lines. […] No changes in frataxin mRNA levels were observed on shorter incubation times.
Cell Culture. Epstein Barr virus transformed lymphoblast cell lines GM15850 from a FRDA patient (alleles with 650 and 1030 GAA repeats in the frataxin gene, from the Coriell Cell Repository, Camden, N.J.), and GM15851 from an unaffected sibling (normal range of repeats), were propagated in RMPI 1640 medium with 2 mM L-glutamine and 15% fetal bovine serum at 37° C. in 5% CO2. Cell growth and morphology were monitored by phase contrast microscopy and viability by trypan blue exclusion and an ATP assay (ApoSENSOR™, BioVision). Polyamides were added directly to the culture medium in PBS. Nuclear localization of the polyamides was verified by deconvolution microscopy, by methods well known in the art (see e.g., Dudouet et al., Chem. Biol., 2003, 10: 859-867).
Real-Time Quantitative RT-PCR. Real-time quantitative RT-PCR (qRT-PCR) analysis was performed essentially as previously described (Chuma, et al., 2003, Hepatology 37:198-207), using the following primers for the frataxin gene: […]
RNA was standardized by quantification of GAPDH mRNA (Pattyn et al., 2003, Nucleic Acids Res. 31:122-123), and all values are expressed relative to GAPDH. qRT-PCR was performed using iScript One-Step RT-PCR kit with SYBR green (Biorad). Statistical analysis was performed on three independent quantitative RT-PCR experiments for each RNA sample.

[2] = tested on: GM15851 normal lymphoid cells; assay: DNA microarray of global gene expression, normal cells; format: cell-based, human; settings: for number of genes with affected mRNA levels: P≦0.005
Description: Effects of Polyamides on Global Gene Expression. DNA microarray analyses (see Example 10) were performed with RNA isolated from GM15850 FRDA and GM15851 normal lymphoid cells that were either untreated or treated with polyamides FA1 (at 1 and 2 μM) or FA2 (at 2 μM) for 7 days on Affymetrix Human Genome U133 Plus 2.0 GeneChips®. These chips contain […] oligonucleotides representing all or nearly all of the genes in the human genome). Experiments were conducted according to manufacturer guidelines. […] Although more genes were judged affected by FA1 at 1 μM than at 2 μM, this difference is largely due to genes whose mRNA levels change by less than […] in either direction, and thus are not highly significant. At 2 μM FA1, 15 genes were increased in expression by greater than 50% and one gene was decreased by 45%. […] For GM15851 cells, two genes were up regulated by FA1, and no genes were down regulated. (Note that the probability that the genes affected in GM15851 cells would be judged significant by chance at P≦0.005 is 0.8-1.0, based on analysis with BRB ArrayTools). […] Strikingly, binding sites for FA1 (5′-AAGAAGAAG-3′, SEQ ID NO: ______) are present in 18/20 genes whose mRNA levels are increased by 1.2-fold or greater in GM15850 cells, although this sequence would be expected to appear at random only once per 262,000 bp in genomic DNA.
DNA Microarrays. FRDA and control lymphoid cells (i.e., lines GM15850 and GM15851, respectively) were incubated with polyamides FA1 (at 1 or 2 μM) or FA2 (at 2 μM), or in the absence of polyamide, in triplicate for seven days prior to RNA purification and microarray analysis. Affymetrix U133A Plus 2.0 GeneChips® were hybridized in groups of eight for each of the three replicates. Raw GeneChip® data were normalized with RMAExpress (Bolstad et al., 2003, Bioinformatics 19:185-193) and the normalized data was filtered to remove probesets called absent on 24 of 24 chips from class comparisons. The Affymetrix probeset-level data was imported to BRB Arraytools (v3.3.0 Beta 3a) selecting the U133 chips used in the experiment and leaving all filters off. For class comparisons between groups of arrays, unpaired samples were used and the random variance model was selected, with the univariate significance threshold set to 0.005. The restrictions for the univariate test were maintained as the default values of 10 for the maximum number of false discovered genes, 0.1 for the maximum proportion of false discoveries, and a 90% confidence level. Because of poor data correlation in one set of replicates, class comparisons were performed using all chips for the control group versus two of the three replicates for the treatment group (i.e., five groups are the minimum number required for class comparisons).

[3] = tested on: sticky DNA in plasmid pRW4886, two tracts of (GAA)176; assay: Sticky DNA disruption, EcoNI digestion and agarose gel; format: biochemical; settings: 37° C., 1 hr
Description: Influence of Polyamides on Sticky DNA Conformation. Plasmid pRW4886, which contains two tracts of (GAA)176 (SEQ ID NO: ______) in a direct repeat orientation (Vetcher et al., 2002b, Id)., and forms sticky DNA, was treated with polyamides at concentrations of 0-50 μM at 37° C. for 1 hr. Restriction digestion with EcoNI following the polyamide incubation enabled visualization of the presence or absence of an EcoNI cleaved sticky DNA band that runs with decreased mobility compared to the linearized plasmid on 1% agarose gels. Quantitation was by densitometric analysis using Fluor Chem version 3.04 (Alpha Innotech Corp).
The capacity of sequence-specific polyamides to disrupt the intramolecular sticky DNA structure formed by GAA repeat tracts was investigated. Plasmids harboring the sticky DNA structure are visualized by gel electrophoresis after restriction endonuclease cleavage, by methods well known in the art. […] Plasmid pRW4886, which contains two tracts of (GAA)176 (SEQ ID NO: ______) in a direct repeat orientation (Vetcher et al., 2002b, Id.), was incubated with each of polyamides FA1, FA2, FA3 and FA4 at concentrations ranging from 0-50 μM. The polyamide-bound DNA was then digested with EcoNI and subjected to electrophoresis on 1% agarose gels to determine the amount of EcoNI cleaved sticky DNA retarded band present. Incubation of pRW4886 DNA with FA3 shifted the equilibrium from a maximum amount of sticky DNA to a complete loss of the EcoNI cleaved sticky DNA retarded band at a concentration of 50 nM. […] For FA1, a 1 μM concentration was needed to dissociate the DNA-DNA structure-forming region. […] Since sticky DNA inhibits transcription (Ohshima et al., Id.; Sakamoto et al., 2001, J. Biol. Chem. 276:27171-27177), and since the polyamides destabilize this conformation by shifting the structural equilibrium to duplex B-type DNA, it is highly likely that the increases in frataxin mRNA observed with polyamide FA1 are due to this structural transition.

Row | SMILES | frataxin mRNA as % of the level in the normal cell line ([1]; GM15850, 2 μM) [%] | range of fold increases of frataxin mRNA in numerous experiments ([1]; GM15850, 2 μM) [fold] | increase of frataxin mRNA level ([1]; GM15850, 2 μM, 7 days, relative to GAPDH) [fold] | effect on frataxin mRNA levels, in words [1] | time for frataxin mRNA to decrease to pre-treatment levels after removal of polyamide ([1]; after induction 7 days, transfer to fresh medium lacking polyamide) [h] | effect of higher concentrations or longer incubation on frataxin transcription ([1]; compared with 2 μM, 7-day incubation) | genes down regulated [2] | genes up regulated [2] | number of genes with affected mRNA levels ([2]; 7 days) | concentration needed to affect or dissociate sticky DNA [3] [µM] | transcript levels for frataxin (microarray) ([2]; 2 μM, 7 days)
1 | CN(C)CCCNC(=O)CCNC(=O)c1nc(NC(=O)CCNC(=O)c2cc(NC(=O)c3nc(NC(=O)CCNC(=O)c4cc(NC(=O)c5nccn5C)cn4C)cn3C)cn2C)cn1C [FA1, ImPyβImPyβImβDp] | ≤ 45 | 2.0 to 3.6 | 2.5 | increased frataxin mRNA levels | 96 | Neither higher concentrations of FA1 nor longer incubations times increased frataxin transcription | no genes | two genes | two genes | 1 | –
2 | CN(C)CCCNC(=O)CCNC(=O)c1cc(NC(=O)CCNC(=O)c2nc(NC(=O)c3nc(NC(=O)CCNC(=O)c4cc(NC(=O)c5nccn5C)cn4C)cn3C)cn2C)cn1C [FA2, ImPyβImImβPyβDp] | – | – | – | modest increase in frataxin transcription | – | – | – | – | one gene | > 100 | not changed
